Assay results published in patent publication US12440492B2, “Pharmaceutical compositions comprising AKT protein kinase inhibitors” (Genentech, Inc., priority 2016, dated 2025).
Where “and” joins values, the source holds several entries; their conditions need not be identical. Identical values can stand only once. Counter-ions that a name gives are not always drawn.

Assays:
Type in all cases: physicochemical
[1] = Shear cell testing with Ring Shear Tester RST-XS
Excerpt: Similar to the classification used by Jenike (Dietmar Schulze, Pulver und Schüttgüter, 2009 Springer Verlag Berlin/DE), one can define flow behaviour based on the flow function constant (ffc) as follows:
The larger the flow function constant ffc, i.e., the smaller the ratio of the unconfined yield strength (σc) to the consolidation stress (σ1), the better a bulk solid's flow.

[2] = Bulk density, tapped density and Carr index; details: for Bulk density / Tapped density: monohydrochloride
[3] = Solid state by X-ray powder diffraction; details: * indicates absence of crystalline API; for Solid state / Polymorphy (X-Ray, XRPD): monohydrochloride
Excerpt: Bragg's law describes the diffraction of crystalline material with the equation “2d·sin(theta)=n·lambda”, wherein “d” denotes perpendicular distance (in Angstroms) between pairs of adjacent planes in a crystal (“d-spacing”), “theta” denotes the Bragg angle, “lambda” denotes the wavelength and “n” is an integer. When Bragg's law is fulfilled, the reflected beams are in phase and interfere constructively so that Bragg diffraction peaks are observed in the X-ray diffraction pattern. At angles of incidence other than the Bragg angle, reflected beams are out of phase and destructive interference or cancellation occurs. […] The XRPD pattern of an amorphous material is further characterized by one or more amorphous halos.
The term “XRPD” denotes the analytical method of X-Ray Powder Diffraction. The repeatability of the angular values is in the range of 2Theta±0.2°, more particularly in the range of 2Theta±0.1°. The term “approximately” given in combination with an angular value denotes the variance which is in the range of 2Theta±0.2°, particularly in the range of 2Theta±0.1°. The relative XRPD peak intensity is dependent upon many factors such as structure factor, temperature factor, crystallinity, polarization factor, multiplicity, and Lorentz factor. Relative intensities may vary considerably from one measurement to another due to preferred orientation effects. According to USP 941 (US Pharmacopoeia, 37th Edition, General Chapter 941), relative intensities between two samples of the same material may vary considerably due to “preferred orientation” effects. Anisotropic materials adopting preferred orientation will lead to anisotropic distribution of properties such as modulus, strength, ductility, toughness, electrical conductivity, thermal expansion, etc., as described e.g. in Kocks U. F. et al. (Texture and Anisotropy: Preferred Orientations in Polycrystals and Their Effect on Materials Properties, Cambridge University Press, 2000). In XRPD but also Raman spectroscopy, preferred orientations cause a change in the intensity distribution. Preferred orientation effects are particularly pronounced with crystalline APIs of relatively large particle size.

[4] = Particle size distribution (d10, d50, d90) by laser diffraction
Excerpt: FIG. 6 illustrates particle size distribution of the material of Example 6C (Batch HQ00003) spray dried with two-feed nozzle as obtained by laser diffraction A bimodal particle size distribution is obvious. FIG. 9 illustrates particle size distribution of spray dried material with rotary wheel nozzle, i.e. of the material of batch BS1506SA03 of Example 13 (Table 20) obtained using a Malvern Mastersizer 2000 equipped with Hydro 2000S wet sample dispersion unit (Malvern Instruments Ltd, Malvern/UK). A monomodal particle size distribution is obvious. The terms “d50 value” (sometimes also referred to as “d(0.5)-value”) and “mass-median diameter” (or MMD) can be used interchangeably and denote the average particle size by mass, i.e. the average equivalent diameter of a particle, which is defined as the diameter where 50% (w) of the particles of the ensemble have a larger equivalent spherical diameter, and the other 50% (w) have a smaller equivalent spherical diameter. In analogy, the term “d10-value” denotes the particle diameter wherein 10% (w) of the particles of the ensemble have a smaller equivalent spherical diameter. In analogy, the term “d90-value” denotes the particle diameter wherein 90% (w) of the particles of the ensemble have a smaller equivalent spherical diameter.

[5] = Pre-shear stress 1000 PA, 30 mL shear cell, monohydrochloride
[6] = spray dried amorphous ipatasertib monohydrochloride powder
[7] = spray-dried amorphous ipatasertib monohydrochloride, rotary wheel atomizer

SMILES	Consolidation stress (σ1) [1, 5] [PA]	Flow Function Constant (ffc) [1, 5]	Bulk density [2, 6]	Tapped density [2, 6]	Solid state / Polymorphy (X-Ray, XRPD) [3]	Particle size d10 [4, 6] [μm]	Particle size d50 [4, 6] [μm]	Particle size d90 [4, 6] [μm]	Bulk density [2, 7] [gcm^−3]	Tapped density [2, 7] [gcm^−3]	Polymorphy (X-Ray) [3]	Particle size d10 [4, 7] [μm]	Particle size d50 [4, 7] [μm]	Particle size d90 [4, 7] [μm]	also measured
CC(C)NC[C@@H](C(=O)N1CCN(c2ncnc3c2[C@H](C)C[C@H]3O)CC1)c1ccc(Cl)cc1 [Composition 140910418, ipatasertib monohydrochloride]	1730	3.1	0.39 gcm^−3	0.55 gcm^−3	amorph.*	10	26	52							
CC(C)NC[C@@H](C(=O)N1CCN(c2ncnc3c2[C@H](C)C[C@H]3O)CC1)c1ccc(Cl)cc1 [BS1506SA01, ipatasertib monohydrochloride]	1725	4.0							0.41	0.57	amorphous*	11	31	64	
CC(C)NC[C@@H](C(=O)N1CCN(c2ncnc3c2[C@H](C)C[C@H]3O)CC1)c1ccc(Cl)cc1 [BS1506SA02, ipatasertib monohydrochloride]	1701	3.5							0.40	0.52	amorphous*	11	31	64	
CC(C)NC[C@@H](C(=O)N1CCN(c2ncnc3c2[C@H](C)C[C@H]3O)CC1)c1ccc(Cl)cc1 [BS1506SA05, ipatasertib monohydrochloride]	1668	3.5							0.41	0.57	amorphous*	13	33	65	
CC(C)NC[C@@H](C(=O)N1CCN(c2ncnc3c2[C@H](C)C[C@H]3O)CC1)c1ccc(Cl)cc1 [Composition 140910416, ipatasertib monohydrochloride]	1731	2.8	0.40 gcm^−3	0.55 gcm^−3	amorph.*	10	27	52							
CC(C)NC[C@@H](C(=O)N1CCN(c2ncnc3c2[C@H](C)C[C@H]3O)CC1)c1ccc(Cl)cc1 [Example 6C′, ipatasertib monohydrochloride]			0.262 gcm^−3 and 0.26 gcm^−3	0.423 gcm^−3 and 0.42 gcm^−3		0.8	3.0	5.7							Consolidation stress (σ1) ([1]; Pre-shear stress 1000 PA): 2118 PA; Flow Function Constant (ffc) ([1]; Pre-shear stress 1000 PA): 1.08; tc ([1]; Pre-shear stress 1000 PA): 514 Pa; Consolidation stress (σ1) ([1]; Pre-shear stress 2000 PA): 4844 PA; Flow Function Constant (ffc) ([1]; Pre-shear stress 2000 PA): 1.09; tc ([1]; Pre-shear stress 2000 PA): 1095 Pa; Consolidation stress (σ1) ([1]; Pre-shear stress 4000 PA): 9557 PA; Flow Function Constant (ffc) ([1]; Pre-shear stress 4000 PA): 1.12; tc ([1]; Pre-shear stress 4000 PA): 2041 Pa; ffc ([1]; across all pre-shear stresses): around 1.1; flowability ([1]; shear cell testing): very poor flowability; Carr Index [2, 6]: 38%
CC(C)NC[C@@H](C(=O)N1CCN(c2ncnc3c2[C@H](C)C[C@H]3O)CC1)c1ccc(Cl)cc1 [BS1506SA07, ipatasertib monohydrochloride]	1705	3.1							0.42	0.56	amorphous*	13	32	65	
CC(C)NC[C@@H](C(=O)N1CCN(c2ncnc3c2[C@H](C)C[C@H]3O)CC1)c1ccc(Cl)cc1 [Composition 140910417, ipatasertib monohydrochloride]	1726	2.9	0.39 gcm^−3	0.55 gcm^−3	amorph.*	11	27	54							
CC(C)NC[C@@H](C(=O)N1CCN(c2ncnc3c2[C@H](C)C[C@H]3O)CC1)c1ccc(Cl)cc1 [Composition 140910420, ipatasertib monohydrochloride]	1733	2.4	0.32 gcm^−3	0.44 gcm^−3	amorph.*	9.7	24	47							

Now from value to compound, other results behind:

Consolidation stress (σ1) [1, 5] [PA]	Flow Function Constant (ffc) [1, 5]	Bulk density [2, 6]	Tapped density [2, 6]	Solid state / Polymorphy (X-Ray, XRPD) [3]	Particle size d10 [4, 6] [μm]	Particle size d50 [4, 6] [μm]	Particle size d90 [4, 6] [μm]	Bulk density [2, 7] [gcm^−3]	Tapped density [2, 7] [gcm^−3]	Polymorphy (X-Ray) [3]	Particle size d10 [4, 7] [μm]	Particle size d50 [4, 7] [μm]	Particle size d90 [4, 7] [μm]	SMILES	also measured
1709	2.9							0.39	0.55	amorphous*	12	31	62	CC(C)NC[C@@H](C(=O)N1CCN(c2ncnc3c2[C@H](C)C[C@H]3O)CC1)c1ccc(Cl)cc1 [BS1506SA03, ipatasertib monohydrochloride]	particle size distribution shape ([4]; laser diffraction, monohydrochloride): monomodal
		0.18 gcm^−3	0.30 gcm^−3	amorphous*	8.1	23	50							CC(C)NC[C@@H](C(=O)N1CCN(c2ncnc3c2[C@H](C)C[C@H]3O)CC1)c1ccc(Cl)cc1 [Composition 140110410, ipatasertib monohydrochloride]	
		0.39 gcm^−3	0.55 gcm^−3	amorph.*	10	28	56							CC(C)NC[C@@H](C(=O)N1CCN(c2ncnc3c2[C@H](C)C[C@H]3O)CC1)c1ccc(Cl)cc1 [Composition 141210423, ipatasertib monohydrochloride]	
		0.27 gcm^−3	0.39 gcm^−3	amorphous*	11.3	35	79							CC(C)NC[C@@H](C(=O)N1CCN(c2ncnc3c2[C@H](C)C[C@H]3O)CC1)c1ccc(Cl)cc1 [Composition 140110409, ipatasertib monohydrochloride]	
		0.48 gcm^−3	0.57 gcm^−3	amorphous*	18	53	109							CC(C)NC[C@@H](C(=O)N1CCN(c2ncnc3c2[C@H](C)C[C@H]3O)CC1)c1ccc(Cl)cc1 [Composition 140210414, ipatasertib monohydrochloride]	
		0.45 gcm^−3	0.60 gcm^−3	amorphous*	7	20	46							CC(C)NC[C@@H](C(=O)N1CCN(c2ncnc3c2[C@H](C)C[C@H]3O)CC1)c1ccc(Cl)cc1 [Composition 140110402, ipatasertib monohydrochloride]	
		0.30 gcm^−3	0.45 gcm^−3	Amorphous*	6.6	20	58							CC(C)NC[C@@H](C(=O)N1CCN(c2ncnc3c2[C@H](C)C[C@H]3O)CC1)c1ccc(Cl)cc1 [Composition 130810453, ipatasertib monohydrochloride]	
